According to patent EP1935986B1, “Luminogenic and fluorogenic compounds and methods to detect molecules or conditions” (priority 2005, dated 2006):

Columns and labels:
CYP4A11 = target: T1, CYP4A11 (Homo sapiens, UniProt Q02928); experiment: Two-step luminescent P450 screen of luciferin derivatives; assay type: biochemical; conditions: result in words
T1 construct: purchased Discovery Labware (BD/Gentest); host or cells: insect cell expression system (membrane fractions)
T1 sequence (Q02928 5-519): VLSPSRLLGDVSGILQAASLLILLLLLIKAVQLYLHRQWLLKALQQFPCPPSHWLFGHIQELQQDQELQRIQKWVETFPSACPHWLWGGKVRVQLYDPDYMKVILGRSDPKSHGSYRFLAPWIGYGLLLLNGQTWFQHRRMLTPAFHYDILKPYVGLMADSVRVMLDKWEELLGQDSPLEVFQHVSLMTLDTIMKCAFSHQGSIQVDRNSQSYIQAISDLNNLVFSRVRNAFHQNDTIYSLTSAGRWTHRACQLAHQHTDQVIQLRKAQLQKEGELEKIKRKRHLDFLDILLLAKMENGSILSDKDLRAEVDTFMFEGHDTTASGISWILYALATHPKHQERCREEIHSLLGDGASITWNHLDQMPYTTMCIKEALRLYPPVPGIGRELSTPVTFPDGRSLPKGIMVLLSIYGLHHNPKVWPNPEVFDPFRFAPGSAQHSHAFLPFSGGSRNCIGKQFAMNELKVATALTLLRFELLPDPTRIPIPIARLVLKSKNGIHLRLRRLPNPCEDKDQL
Description: (§1) P450s are Supersomes™ purchased from Discovery Labware (BD/Gentest). […] HLM is human liver microsomes.
(§2) 1X substrate concentration: 50 µM.

luciferase = experiment: No-enzyme control: activity of luciferase towards the luciferin derivative (background luminescence); conditions: on a BMG luminometer; minus P450
Description: The reactions (Table 1) were assembled by first adding the water and 1 M BisTris solutions in individual 0.5 ml microfuge tubes, then adding the other components except for the GST #3 solution. Finally, the GST #3 (Figure 12) solution was added to the reactions, the resulting solution was mixed, and the time of addition noted. […]
The GST #3 addition was performed last and the solutions were mixed immediately after addition of GST #3. […] After mixing, the light produced by the solution was measured using a Turner TD 20/20 luminometer.
After assembly, the enzyme stock solutions were diluted 1:10 into 10 mM HEPES, pH 7.5 and the following additions were made to the reactions.
A 5 µl sample of the luciferol DMF solution was added to each of the reactions above and a timer was started upon the addition of the first luciferol/DMF solution to reaction 1. All reactions were kept at room temperature.
After incubating 5 minutes at room temperature, the light produced by these samples was measured using a Turner TD 20 luminometer.
To initiate the conversions, 5 µl of luciferol solution was added to reactions […], 6-9, and 11-15, and 10 µl of luciferol was added to reactions 5 and 10 and the tubes mixed after that addition. Immediately after luciferol addition to reaction 1, a timer was started and the time of luciferol addition to the other tubes noted. After mixing, reaction 11-15 were placed at 37°C.
After incubating 10 minutes at room temperature, the light produced by these samples was read using a Turner TD 20 luminometer (Table 18).
To initiate Step 1, 45 µl of enzyme and buffer were added to each well.
Solution A and Solution B are components of the NADPH Regeneration System (V9510, Promega Corp., Madison WI). […] Solution B contains 40 units/ml glucose-6-phosphate dehydrogenase in 5 mM citrate pH 5.5.

CYP4F12 = target: T2, CYP4F12 (Homo sapiens, UniProt Q9HCS2); experiment: Two-step luminescent P450 screen of luciferin derivatives; assay type: biochemical; conditions: result in words
T2 construct: purchased Discovery Labware (BD/Gentest); host or cells: insect cell expression system (membrane fractions)
T2 sequence (Q9HCS2 1-524): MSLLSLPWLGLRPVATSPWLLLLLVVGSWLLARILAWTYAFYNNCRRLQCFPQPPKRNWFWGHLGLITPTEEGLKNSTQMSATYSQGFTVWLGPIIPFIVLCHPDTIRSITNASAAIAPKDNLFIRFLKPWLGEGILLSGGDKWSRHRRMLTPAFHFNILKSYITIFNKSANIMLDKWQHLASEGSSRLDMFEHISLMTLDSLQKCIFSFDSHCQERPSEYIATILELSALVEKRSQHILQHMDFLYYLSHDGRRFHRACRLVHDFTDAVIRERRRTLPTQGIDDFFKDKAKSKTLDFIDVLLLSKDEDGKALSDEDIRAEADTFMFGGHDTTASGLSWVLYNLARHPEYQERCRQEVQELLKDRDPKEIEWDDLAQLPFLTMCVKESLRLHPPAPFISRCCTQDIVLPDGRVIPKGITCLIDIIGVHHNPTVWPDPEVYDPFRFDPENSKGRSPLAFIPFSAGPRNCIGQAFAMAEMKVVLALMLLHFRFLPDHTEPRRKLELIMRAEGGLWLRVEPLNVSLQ
Description: as §1, §2

[1] = test system: CYP3A subfamily, CYP3A4, CYP3A5 and CYP3A7; experiment: Two-step luminescent P450 screen of luciferin derivatives, selectivity for the CYP3A subfamily; assay type: biochemical, human; conditions: result in words
Description: as §1, §2

CYP3A4 = CYP3A4 (Homo sapiens, UniProt P08684); experiment: Two-step luminescent P450 screen of luciferin derivatives; conditions: result in words
CYP2C19 = target: T3, CYP2C19 (Homo sapiens, UniProt P33261); experiment: as above; assay type: biochemical; conditions: for P450 activity / selectivity with the derivative as substrate: result in words
T3 construct: purchased Discovery Labware (BD/Gentest); host or cells: insect cell expression system (membrane fractions)
Description: as §1, §2
(§3) For Figure 20, 1 or 5 picomoles of recombinant CYP2D6 or CYP2C19 membrane fractions from an insect cell expression system (SupersomesTM, Discovery Labware) were incubated at 37°C for 60 minutes with 200 µM D-luciferin 6' methyl ether (luciferin-ME) in 50 mM (CYP2C19) or 100 mM (CYP2D6) KPO4 (pH 7.4) with an NADPH regenerating system (as described above) in a volume of 50 µl. […] For Figure 20, the panel of human P450s was screened as described above.

CYP2D6 = target: T4, CYP2D6 (Homo sapiens, UniProt P10635); experiment: as above; assay type: biochemical; conditions: for P450 activity / selectivity with the derivative as substrate: result in words
T4 construct: purchased Discovery Labware (BD/Gentest); host or cells: insect cell expression system (membrane fractions)
Description: as §1, §2, §3

CYP1A2 = target: T5, CYP1A2 (Homo sapiens, UniProt P05177); experiment: as above; assay type: biochemical; conditions: 50 µM substrate, 1 pmole P450; result in words
T5 construct: purchased Discovery Labware (BD/Gentest); host or cells: insect cell expression system (membrane fractions)
T5 sequence (P05177 2-516 limits assumed): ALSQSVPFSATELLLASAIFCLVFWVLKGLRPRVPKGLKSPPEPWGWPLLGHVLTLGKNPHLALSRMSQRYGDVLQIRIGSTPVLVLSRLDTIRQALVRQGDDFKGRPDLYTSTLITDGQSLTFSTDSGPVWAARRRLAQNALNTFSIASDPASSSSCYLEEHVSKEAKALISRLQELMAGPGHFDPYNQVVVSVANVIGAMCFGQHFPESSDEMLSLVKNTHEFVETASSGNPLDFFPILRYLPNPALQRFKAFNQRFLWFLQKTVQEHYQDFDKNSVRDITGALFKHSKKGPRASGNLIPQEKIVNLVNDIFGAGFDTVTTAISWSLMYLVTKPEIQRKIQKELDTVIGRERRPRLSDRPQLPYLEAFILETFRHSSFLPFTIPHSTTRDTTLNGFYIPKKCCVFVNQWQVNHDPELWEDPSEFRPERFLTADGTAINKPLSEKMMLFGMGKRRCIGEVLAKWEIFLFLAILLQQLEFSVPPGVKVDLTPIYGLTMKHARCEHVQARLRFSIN
Description: as §1, §2

CYP1A1 = target: T6, CYP1A1 (Homo sapiens, UniProt P04798); experiment: as above; conditions: 50 µM substrate, 1 pmole P450, 37°C 30 minutes; result in words
T6 sequence (P04798 1-512): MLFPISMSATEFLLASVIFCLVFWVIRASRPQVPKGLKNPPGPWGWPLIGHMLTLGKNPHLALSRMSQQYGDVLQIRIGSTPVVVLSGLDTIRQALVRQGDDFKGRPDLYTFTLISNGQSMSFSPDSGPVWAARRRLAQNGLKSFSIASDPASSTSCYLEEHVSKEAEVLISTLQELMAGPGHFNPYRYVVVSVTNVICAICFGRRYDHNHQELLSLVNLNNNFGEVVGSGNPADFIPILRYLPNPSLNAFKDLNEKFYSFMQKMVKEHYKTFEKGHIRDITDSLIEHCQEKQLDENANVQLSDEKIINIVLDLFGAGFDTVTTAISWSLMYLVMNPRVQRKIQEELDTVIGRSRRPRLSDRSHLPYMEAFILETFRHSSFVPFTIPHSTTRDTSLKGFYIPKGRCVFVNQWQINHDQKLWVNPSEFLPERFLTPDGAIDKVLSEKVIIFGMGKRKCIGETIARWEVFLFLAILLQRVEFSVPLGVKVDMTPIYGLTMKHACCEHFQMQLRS

T4 sequence (P10635 whole entry): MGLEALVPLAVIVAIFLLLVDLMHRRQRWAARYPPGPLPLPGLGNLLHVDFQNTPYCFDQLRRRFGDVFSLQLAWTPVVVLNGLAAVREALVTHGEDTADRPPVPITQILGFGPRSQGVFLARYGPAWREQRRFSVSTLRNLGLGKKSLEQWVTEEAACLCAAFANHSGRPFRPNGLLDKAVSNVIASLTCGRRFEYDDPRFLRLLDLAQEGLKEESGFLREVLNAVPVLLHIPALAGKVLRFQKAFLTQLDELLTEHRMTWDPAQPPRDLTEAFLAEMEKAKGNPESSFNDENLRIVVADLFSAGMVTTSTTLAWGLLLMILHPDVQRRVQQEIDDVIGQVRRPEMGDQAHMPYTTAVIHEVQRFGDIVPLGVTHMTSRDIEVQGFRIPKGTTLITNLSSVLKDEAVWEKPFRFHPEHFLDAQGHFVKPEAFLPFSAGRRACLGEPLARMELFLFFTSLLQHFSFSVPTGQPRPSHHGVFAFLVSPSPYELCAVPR
CYP3A4, sequence (P08684 2-503 limits assumed): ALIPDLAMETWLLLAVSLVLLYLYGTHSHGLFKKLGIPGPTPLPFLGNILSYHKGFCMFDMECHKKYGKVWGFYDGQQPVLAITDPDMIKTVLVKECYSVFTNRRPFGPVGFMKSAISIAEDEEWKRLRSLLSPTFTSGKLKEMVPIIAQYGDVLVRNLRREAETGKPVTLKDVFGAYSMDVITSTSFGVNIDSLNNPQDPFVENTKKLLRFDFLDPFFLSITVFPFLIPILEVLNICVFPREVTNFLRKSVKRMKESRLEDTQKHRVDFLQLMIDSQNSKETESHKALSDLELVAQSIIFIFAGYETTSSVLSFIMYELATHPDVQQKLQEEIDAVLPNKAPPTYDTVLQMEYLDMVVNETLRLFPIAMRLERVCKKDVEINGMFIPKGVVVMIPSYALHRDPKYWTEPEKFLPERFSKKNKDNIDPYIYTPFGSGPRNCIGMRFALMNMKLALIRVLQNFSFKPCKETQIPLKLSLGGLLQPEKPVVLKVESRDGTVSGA
T3 sequence (P33261 whole entry): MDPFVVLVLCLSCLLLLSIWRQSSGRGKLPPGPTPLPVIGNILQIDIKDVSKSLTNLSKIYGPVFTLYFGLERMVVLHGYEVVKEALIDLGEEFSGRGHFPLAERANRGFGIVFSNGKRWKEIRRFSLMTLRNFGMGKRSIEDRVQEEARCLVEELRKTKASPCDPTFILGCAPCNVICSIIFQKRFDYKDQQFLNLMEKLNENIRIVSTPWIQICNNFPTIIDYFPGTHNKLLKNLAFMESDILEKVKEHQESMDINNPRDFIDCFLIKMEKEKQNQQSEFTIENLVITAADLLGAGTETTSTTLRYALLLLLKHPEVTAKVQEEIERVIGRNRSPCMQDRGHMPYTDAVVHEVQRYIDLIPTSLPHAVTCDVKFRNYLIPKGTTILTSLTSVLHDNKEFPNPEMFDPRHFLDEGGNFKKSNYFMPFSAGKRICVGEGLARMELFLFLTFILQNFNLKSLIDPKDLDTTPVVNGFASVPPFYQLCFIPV

Which “P450 activity / selectivity with the derivative as substrate” value (“P450 activity / selectivity” below) (CYP4A11) does the source give for “2-(7-methyoxy-quinoxalin-2-yl)-4-5-dihydro-thiazole-4-carboxylic acid [quinoxalylluciferin 6-methyl ether]” here?
The value was “substrate”.

Which results are given for `O=C(O)[C@H]1CSC(c2nc3ccc(OCc4c(F)c(F)c(F)c(F)c4F)cc3s2)=N1` [6'-(2,3,4,5,6-pentafluorobenzyloxy)-luciferin]?
background luminescence (luciferase): about 900 RLU; P450 activity / cross reactivity with the derivative as substrate (CYP4F12): did not show substantial cross reactivity; selectivity for three members of the CYP3A subfamily [1]: selective; P450 activity / selectivity with the derivative as substrate (CYP3A4): substantial activity

Which “P450 activity / cross reactivity with the derivative as substrate” value (CYP4F12) does the source give for `O=C(O)[C@H]1CSC(c2nc3ccc(OCc4c(F)c(F)c(F)c(CN5CCN(c6ccccc6)CC5)c4F)cc3s2)=N1` [LucPPXE4F, 6'-(2,3,4,6-tetrafluoro-5-((4-phenylpiperizin-1-yl)methyl)benzyloxy)-luciferin] here?
Its value is “did not show substantial cross reactivity”.

What about the “selectivity for three members of the CYP3A subfamily” value [1] of the same compound?
Its value is “selective”.

What about the “P450 activity / selectivity” value (CYP3A4) of the same compound?
Its value is “substantial activity”.

Which background luminescence (luciferase) does the source give for `O=C(O)[C@H]1CSC(c2nc3ccc(OCc4cccc(CN5CCN(c6ccccc6)CC5)c4)cc3s2)=N1` [LucPPXE, Luciferin 3-(4-phenylpiperazin-1-yl)methylbenzyl ether] here?
The background luminescence was “about 2200 RLU”.

What about the “P450 activity / cross reactivity with the derivative as substrate” value (CYP4F12; listed as 6'(3-((4-phenylpipenzin-1-yl))methyl)benzyloxy) luciferin) of the same compound?
The value was “did not cross react”.

And the “selectivity for three members of the CYP3A subfamily” value [1]?
The value was “selective”.

What about the “P450 activity / selectivity” value (CYP3A4) of the same compound?
The value was “substantial activity”.

What about the “competition at the substrate binding sites on CYP3A4” value (CYP3A4) of the same compound?
The value was “competitive at 2 of the 3 substrate binding sites”.

What about the “sensitivity of the reaction with 3A4 to DMSO” value (CYP3A4) of the same compound?
The value was “insensitive to DMSO at commonly used concentrations”.

How did the “P450 activity / selectivity” value (CYP4A11) turn out when `COc1ccc2cc(C3=N[C@@H](C(=O)O)CS3)ccc2c1` [Naphthylluciferin 6-methyl ether, naphthyl luciferin methyl ether] was run?
Its value is “substrate”.

What does the source list for `COC(=O)[C@H]1CSC(c2nc3ccc(OC)cc3s2)=N1` [carboxyl ester of luciferin-ME, carboxyl methyl ester of luciferin-ME]?
P450 activity / selectivity with the derivative as substrate (CYP2C19): reacted strongly; P450 activity / selectivity with the derivative as substrate (CYP2D6): substantially increased

With `COC(=O)[C@H]1CSC(c2nc3ccccc3s2)=N1` [carboxyl methyl ester of deoxyluciferin] as the compound, how does the “P450 activity / selectivity” value (CYP2C19) read?
The value was “substantial activity with CYP2C 19 and strong selectivity”.

With `O=C(OCc1cccnc1)[C@H]1CSC(c2nc3ccccc3s2)=N1` [carboxyl picolinyl ester of luciferin-H, m-picolinyl ester of luciferin-H] as the compound, how does the “P450 activity / selectivity” value (CYP1A2) read?
Its value is “showed preference”.

What about the “signal when the esterase was not added, relative to the plus esterase signal” value (CYP2C19; purified recombinant CYP2C19 substantially free of carboxylesterases, 2 step assay) of the same compound?
The value was “less than 10%”.

What about the “P450 activity / selectivity” value (CYP2C19) of the same compound?
Its value is “showed preference”.

And the “P450 activity / selectivity” value (CYP1A1)?
Its value is “showed preference”.

Which results are given for `COc1ccc2nc(C3=NC(C(=O)OCc4cccnc4)CS3)sc2c1` (centres unmarked) [m-picolinyl ester of luciferin methyl ether]?
P450 activity / selectivity with the derivative as substrate (CYP1A2): showed a preference; signal when the esterase was not added, relative to the plus esterase signal (CYP2D6; purified recombinant CYP2D6 substantially free of carboxylesterases, 2 step assay): less than 10%; P450 activity / selectivity with the derivative as substrate (CYP2D6): showed a preference; P450 activity / selectivity with the derivative as substrate (CYP1A1): showed a preference
